Data reported in patent US12319655B2, “RAF kinase inhibitors and methods of use thereof” (Deciphera Pharmaceuticals, LLC, priority 2021, dated 2025).

Tests used:
[1] = target: A-Raf kinase (SEQ. ID No: 1) (Homo sapiens (Human), UniProt P10398, Y301D/Y302D); assay: Biochemical Assay for A-Raf (1); conditions: Table J, assay version (1); read-out: ARAF (1) IC50
Procedure, shortened: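 A-Raf Y301D/Y302D at 5.55 nM phosphorylates 30.1 nM MEK with 1 mM ATP in pH 7.5 Tris buffer, 1% DMSO. Activity was read continuously as NADH oxidation at 340 nm in a pyruvate kinase/lactate dehydrogenase coupled system for 6 h at 30 °C. Rates from 4–5 h were converted to percent inhibition, and IC50 came from a four-parameter fit.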

[2] = target: B-Raf kinase (SEQ. ID NO: 2) (Homo sapiens (Human), UniProt P15056); assay: Biochemical Assay for B-Raf (1); conditions: Table J, assay version (1); read-out: BRAF (1) IC50
Chain of B-Raf kinase (SEQ. ID NO: 2) (P15056 416-766): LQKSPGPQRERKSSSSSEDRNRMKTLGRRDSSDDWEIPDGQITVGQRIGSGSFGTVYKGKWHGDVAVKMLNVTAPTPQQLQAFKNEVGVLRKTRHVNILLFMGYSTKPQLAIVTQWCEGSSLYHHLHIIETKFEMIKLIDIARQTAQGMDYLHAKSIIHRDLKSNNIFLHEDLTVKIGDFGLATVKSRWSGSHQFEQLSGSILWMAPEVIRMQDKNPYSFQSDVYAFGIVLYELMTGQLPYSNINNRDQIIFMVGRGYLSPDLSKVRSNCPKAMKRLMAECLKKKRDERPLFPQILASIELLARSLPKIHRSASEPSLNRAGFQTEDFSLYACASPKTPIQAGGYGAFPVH
Procedure, shortened: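 Continuous PK/LDH-coupled NADH oxidation assay, A340 read for 6 h at 30° C., with 0.13 nM B-Raf, 30.1 nM MEK substrate and 1 mM ATP in Tris pH 7.5, MgCl2, DTT, detergents, 1% DMSO. Rate taken from 4–5 h window; percent inhibition vs no-compound and known-inhibitor controls; four-parameter fit gives IC50.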

[3] = system: Miapaca-2 cells; assay: MiaPaca-2 Cell Proliferation Assay (1); format: cell-based; conditions: Homo sapiens, MIA PaCa-2, single agent, read-out: MiaPaca2 (1) IC50
Protocol: MiaPaca-2 Cell Proliferation Assay (1)
Miapaca-2 cells (catalog #CRL-1420) are obtained from the American Type Culture Collect (ATTC, Manassas, VA). Briefly, cells were grown in DMEM supplemented with 10% characterized fetal bovine serum (Invitrogen, Carlsbad, CA), 2.5% New Zealand sourced horse serum and 1% Penicillin/Streptomycin/L-Glutamine at 37° C., 5% CO2, and 95% humidity. Cells are expanded until reaching 70-95% confluency at which point they are sub-cultured or harvested for assay use. A serial dilution of test compound is dispensed into a 96-well black clear bottom plate in triplicate. Three thousand cells are added per well in 200 μL complete growth medium in the 96-well plate. Plates are incubated for 67-72 h at 37° C., 5% CO2, and 95% humidity. At the end of the incubation, 40 μL of a 440 μM solution of resazurin (Sigma, St. Louis, MO) in PBS is added to each well of the plate and plates are incubated for an additional 5-6 h at 37° C., 5% CO2, and 95% humidity. Plates are read on a Synergy2 or equivalent reader (Biotek, Winooski VT) using an excitation of 540 nm and an emission of 600 nm. Data is analyzed using Prism software (GraphPad, San Diego, CA) to calculate IC50 values.

[4] = system: Miapaca-2 cells; assay: MiaPaca-2 Combination Cell proliferation Assay (1) with cobimetinib; format: cell-based; conditions: MiaPaca-2 cell proliferation, read-out: MiaPaca-2 Combo (1) IC50
Protocol: MiaPaca-2 Combination Cell proliferation Assay (1)
Miapaca-2 cells (catalog #CRL-1420) are obtained from the American Type Culture Collect (ATCC, Manassas, VA). Briefly, cells were grown in DMEM supplemented with 10% characterized fetal bovine serum (Invitrogen, Carlsbad, CA), 2.5% New Zealand sourced horse serum and 1% Penicillin/Streptomycin/L-Glutamine at 37° C., 5% CO2, and 95% humidity. Cells are expanded until reaching 70-95% confluency at which point they are subcultured or harvested for assay use. A serial dilution of test compound was dispensed into multiple 96-well black clear bottom plates in triplicate. A serial dilution of complete growth medium containing cobimetinib was prepared at twice the final concentration and 100 μL was dispensed across the test compound titration in triplicate. Three thousand cells are added per well in 100 μL complete growth medium in each 96-well plate. Plates are incubated for 67-72 hours at 37° C., 5% CO2, and 95% humidity. At the end of the incubation, 40 μL of a 440 μM solution of resazurin (Sigma, St. Louis, MO) in PBS is added to each well of the plate and plates are incubated for an additional 5-7 hours at 37° C., 5% CO2, and 95% humidity. Plates are read on a Synergy2 or equivalent reader (Biotek, Winooski VT) using an excitation of 540 nm and an emission of 600 nm. Drug synergy was assessed via BLISS analysis in the Combenefit software (Cancer Research UK Cambridge Institute, Cambridge, UK). Data is analyzed using Prism software (Graphpad, San Diego, CA) to calculate IC50 values. Shifts in test compound IC50 values are reported from top-constrained combination therapy curves.

Chain of A-Raf kinase (SEQ. ID No: 1) (P10398 other isoform, or with tags, fused parts or gaps Y301D (already in the parent)/Y302D (already in the parent)): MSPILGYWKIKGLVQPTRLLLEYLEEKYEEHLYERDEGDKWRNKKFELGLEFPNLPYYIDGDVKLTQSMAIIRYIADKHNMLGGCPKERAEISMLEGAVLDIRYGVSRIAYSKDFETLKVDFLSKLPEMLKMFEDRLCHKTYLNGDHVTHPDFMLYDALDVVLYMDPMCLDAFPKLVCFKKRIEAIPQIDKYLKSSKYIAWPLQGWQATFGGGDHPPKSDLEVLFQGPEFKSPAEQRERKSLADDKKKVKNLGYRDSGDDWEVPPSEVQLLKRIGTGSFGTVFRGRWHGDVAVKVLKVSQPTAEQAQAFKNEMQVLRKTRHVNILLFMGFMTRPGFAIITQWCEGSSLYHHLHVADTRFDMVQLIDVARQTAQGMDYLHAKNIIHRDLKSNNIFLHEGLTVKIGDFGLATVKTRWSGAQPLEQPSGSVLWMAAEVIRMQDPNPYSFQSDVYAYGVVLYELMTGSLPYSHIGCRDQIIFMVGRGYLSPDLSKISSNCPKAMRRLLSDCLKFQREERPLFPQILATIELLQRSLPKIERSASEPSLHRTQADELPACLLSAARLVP

SMILES	IC50 [1] [nM]	IC50 [2] [nM]	IC50 [3] [nM]	IC50 [4] [nM]
CC(=O)Nc1cc(-c2cc(-c3cc(NC(=O)c4ccnc(C(F)(F)F)c4)c(F)cc3C)cc(C)n2)ccn1 [Example 4]	1000 to 10000	≤ 100	1000 to 10000	≤ 100
Cc1cc(F)c(NC(=O)c2ccnc(C(F)(F)F)c2)cc1-c1ccnc(-c2ccnc(NC(=O)CN(C)C)c2)c1 [Example 7]	1000 to 10000	≤ 100	1000 to 10000	100 to 500
CC(=O)Nc1cc(-c2ccnc(-c3cc(NC(=O)c4ccnc(C(C)(C)C#N)c4)ccc3C)n2)ccn1 [Example 103]	500 to 1000	≤ 100	1000 to 10000	≤ 100
Cc1cc(F)c(NC(=O)c2ccnc(C(C)(C)C#N)c2)cc1-c1ccnc(-c2ccnc(NC=O)c2)c1 [Example 104]	1000 to 10000	≤ 100	1000 to 10000	≤ 100
Cc1ccc(NC(=O)c2ccnc(C(C)(C)C#N)c2)cc1-c1cncc(-c2ccnc(NC(=O)C3CC3)c2)n1 [Example 112]	500 to 1000	≤ 100	1000 to 10000	≤ 100
Cc1ccc(NC(=O)c2ccnc(C(F)F)c2)cc1-c1cncc(-c2ccnc(NC(=O)C3CC3)c2)n1 [Example 117]	1000 to 10000	≤ 100	1000 to 10000	≤ 100
CC(=O)Nc1cc(-c2nccc(-c3cc(NC(=O)c4ccnc(C(C)(C)C#N)c4)ccc3C)n2)ccn1 [Example 118]	500 to 1000	≤ 100	1000 to 10000	≤ 100
CC(=O)Nc1cc(-c2cncc(-c3cc(NC(=O)c4cc(C(F)(F)F)ccn4)ccc3C)n2)ccn1 [Example 124]	1000 to 10000	≤ 100	1000 to 10000	≤ 100
CNC(=O)c1cc(-c2cc(-c3cc(NC(=O)c4cccc(C(C)(C)C#N)c4)ccc3C)ccn2)ccn1 [Example 127]	1000 to 10000	≤ 100	1000 to 10000	≤ 100
Cc1ccc(NC(=O)c2ccnc(C(C)(C)C#N)c2)cc1-c1cccc(-c2ccnc3[nH]ncc23)c1 [Example 134]	1000 to 10000	≤ 100	1000 to 10000	100 to 500
CNC(=O)c1cc(-c2cncc(-c3cc(NC(=O)c4ccnc(C5(C#N)CC5)c4)ccc3C)n2)ccn1 [Example 138]	1000 to 10000	≤ 100	1000 to 10000	100 to 500
CC(=O)Nc1cc(-c2nccc(-c3cc(NC(=O)c4ccnc(C5CC5)c4)ccc3C)n2)ccn1 [Example 152]	500 to 1000	≤ 100	1000 to 10000	
CC(=O)Nc1cc(-c2nccc(-c3cc(NC(=O)c4cc(C(F)(F)F)ccn4)ccc3C)n2)ccn1 [Example 153]	100 to 500	≤ 100	1000 to 10000	
Cc1ccc(NC(=O)c2ccnc(C(C)(C)C#N)c2)cc1-c1cncc(-c2ccnc(NC(=O)CC#N)c2)n1 [Example 154]	100 to 500	≤ 100	1000 to 10000	
COCCNc1cc(-c2cccc(-c3cc(NC(=O)c4ccnc(C(F)(F)F)c4)ccc3C)c2)ncn1 [Example 156]	1000 to 10000	100 to 500	1000 to 10000	
CC(=O)Nc1cc(-c2nccc(-c3cc(NC(=O)c4ccnc(C(F)(F)F)c4)cnc3C)n2)ccn1 [Example 157]	1000 to 10000	≤ 100	1000 to 10000	
CNC(=O)c1cc(-c2cc(-c3cc(NC(=O)c4ccnc(C(C)(C)C#N)c4)cnc3C)ccn2)ccn1 [Example 158]	1000 to 10000	100 to 500	1000 to 10000	≤ 100
CNc1cc(-c2cccc(-c3cc(NC(=O)c4ccnc(C(C)(C)C#N)c4)ccc3C)c2)ncn1 [Example 160]	1000 to 10000	≤ 100	1000 to 10000	100 to 500

SMILES	IC50 [1] [nM]	IC50 [2] [nM]	IC50 [3] [nM]	IC50 [4] [nM]
Cc1ccc(NC(=O)c2ccnc(C(C)(C)C#N)c2)cc1-c1cncc(-c2ccnc(NC=O)c2)n1 [Example 161]	500 to 1000	≤ 100	1000 to 10000	
Cc1ccc(NC(=O)c2ccnc(C(C)(C)C#N)c2)cc1-c1ccnc(-c2ccnc(C(=O)NC3CC3)c2)c1 [Example 162]	1000 to 10000	100 to 500	1000 to 10000	
CNC(=O)c1cc(-c2nccc(-c3cc(NC(=O)c4ccnc(C(C)(C)C#N)c4)c(F)cc3C)n2)ccn1 [Example 166]	1000 to 10000	100 to 500	1000 to 10000	
CC(=O)Nc1cc(-c2nccc(-c3cc(NC(=O)c4cnnc(C5CC5)c4)ccc3C)n2)ccn1 [Example 168]	1000 to 10000	≤ 100	1000 to 10000	
Cc1ccc(NC(=O)c2ccnc(C(C)(C)C#N)c2)cc1-c1nccc(-c2ccnc(NC(=O)C3CC3)c2)n1 [Example 169]	100 to 500	≤ 100	1000 to 10000	
CNC(=O)c1cc(-c2cccc(-c3cc(NC(=O)c4ccnc(C(C)(C)C#N)c4)ccc3C)c2)ncn1 [Example 171]	1000 to 10000	≤ 100	1000 to 10000	
Cc1ncc(NC(=O)c2ccnc(C(C)(C)C#N)c2)cc1-c1cccc(-c2ccnc(NC(=O)C3CC3)c2)n1 [Example 172]	1000 to 10000	≤ 100	1000 to 10000	≤ 100
CNc1cc(-c2cncc(-c3cc(NC(=O)c4ccnc(C(C)(C)C#N)c4)ccc3C)n2)ccn1 [Example 173]	1000 to 10000	100 to 500	1000 to 10000	
Cc1ccc(NC(=O)c2cccc(C(C)(C)C#N)c2)cc1-c1cccc(-c2cc(NC(=O)C3CC3)ncn2)c1 [Example 174]	1000 to 10000	≤ 100	1000 to 10000	
CNC(=O)c1cc(-c2nccc(-c3cc(NC(=O)c4ccnc(C5(C#N)CC5)c4)ccc3C)n2)ccn1 [Example 175]	1000 to 10000	≤ 100	1000 to 10000	≤ 100
CNC(=O)c1cc(-c2cc(-c3cc(NC(=O)c4ccnc(C(C)(C)C#N)c4)c(F)cc3C)ccn2)ccn1 [Example 176]	1000 to 10000	100 to 500	1000 to 10000	
CNC(=O)c1cc(-c2ccnc(-c3cc(NC(=O)c4ccnc(C(C)(C)C#N)c4)ccc3C)n2)ccn1 [Example 177]	1000 to 10000	100 to 500	1000 to 10000	
CNC(=O)c1cc(-c2cc(-c3cc(NC(=O)c4ccnc(C5(C#N)CC5)c4)ccc3C)ncn2)ccn1 [Example 178]	1000 to 10000	≤ 100	1000 to 10000	
Cc1cc(F)c(NC(=O)c2ccnc(C(C)(C)C#N)c2)cc1-c1ccnc(-c2ccnc(NC(=O)C3CC3)c2)n1 [Example 179]	500 to 1000	≤ 100	1000 to 10000	
Cc1ccc(NC(=O)c2ccnc(C3(C#N)CC3)c2)cc1-c1ccnc(-c2ccnc(NC(=O)C3CC3)c2)n1 [Example 180]	100 to 500	≤ 100	1000 to 10000	
Cc1ncc(NC(=O)c2ccnc(C(C)(C)C#N)c2)cc1-c1cccc(-c2cc(NC(=O)C3CC3)ncn2)c1 [Example 181]	1000 to 10000	≤ 100	1000 to 10000	≤ 100
CCC(=O)Nc1cc(-c2cccc(-c3cc(NC(=O)c4ccnc(C(C)(C)C#N)c4)cnc3C)n2)ccn1 [Example 182]	1000 to 10000	100 to 500	1000 to 10000	
